Activity calls are given as the source filed them.
Assays:
[1] = molecular target: Exodeoxyribonuclease V (Escherichia coli (strain K12), UniProt P04993+P07648+P08394); experiment: RecBCD inhibition via phage-restricted bacterial growth – absorbance, V66 E. coli, mutant T4 phage, counter-screen for AddAB inhibitor project, dose response (AID 492957); type: functional, cell-based, Escherichia coli str. K-12 substr. MG1655
[2] = Counterscreen for AddAB inhibitors: absorbance-based bacterial cell-based high throughput dose response assay for inhibitors of bacterial viability. [Related pubchem assays (depositor defined):AID435030, AID449728, AID449731, AID488942, AID488955, AID488956]; type: functional
[3] = molecular target: Beta-2 adrenergic receptor (Homo sapiens, UniProt P07550); experiment: ADRB2 activation measured by internalization – cell-based, FAP fluorogen, flow cytometry, cherry pick 1, dose response (AID 588763); type: functional
Beta-2 adrenergic receptor, sequence (P07550 whole entry, the tested form may be a part): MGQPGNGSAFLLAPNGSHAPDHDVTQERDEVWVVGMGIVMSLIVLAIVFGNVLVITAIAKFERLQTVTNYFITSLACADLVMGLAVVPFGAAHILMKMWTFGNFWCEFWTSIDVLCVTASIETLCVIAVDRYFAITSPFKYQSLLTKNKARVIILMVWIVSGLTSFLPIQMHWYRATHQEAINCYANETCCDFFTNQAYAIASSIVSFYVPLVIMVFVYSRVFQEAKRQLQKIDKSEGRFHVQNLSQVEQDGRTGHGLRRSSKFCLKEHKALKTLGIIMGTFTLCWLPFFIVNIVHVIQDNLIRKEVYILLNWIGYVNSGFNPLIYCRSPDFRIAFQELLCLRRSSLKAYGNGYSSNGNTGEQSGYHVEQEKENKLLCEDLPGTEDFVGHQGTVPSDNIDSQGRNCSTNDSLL

[4] = test system: CHO; experiment: CHO cell viability loss, potency – luminescence, cytotoxicity control for TLR9-MyD88 binding inhibitor project, dose response (AID 588339); type: functional, cell-based, hamster; conditions: Cricetulus griseus;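 note: CHO cells stably coexpressing TLR9 and MyD88 fusions from primary screen; compound exposure lasted 48 hours before viability readout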
[5] = molecular target: Beta Lactamase (Pseudomonas aeruginosa, UniProt Q932Y6); experiment: BLA reporter interference, concentration series – BLA reporter cells, FRET fluorescence, artefact control for TLR9-MyD88 binding inhibitor project, dose response (AID 588341); type: cell-based;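 note: cell based assay in CHO-K1 cells stably expressing beta-lactamase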
Beta Lactamase, sequence (Q932Y6 whole entry): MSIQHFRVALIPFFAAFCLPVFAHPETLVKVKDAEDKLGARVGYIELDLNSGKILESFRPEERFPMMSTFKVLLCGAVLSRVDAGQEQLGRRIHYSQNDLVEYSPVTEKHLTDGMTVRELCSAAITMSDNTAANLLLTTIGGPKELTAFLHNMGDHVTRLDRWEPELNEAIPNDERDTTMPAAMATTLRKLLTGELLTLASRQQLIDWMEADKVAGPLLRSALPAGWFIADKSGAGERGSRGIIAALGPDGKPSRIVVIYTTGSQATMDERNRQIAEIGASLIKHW

[6] = test system: HeLa; experiment: ATP-based viability loss in HeLa cells – cell-based, CellTiter-Glo luminescence, cherry-pick samples, cytotoxicity control for MITF activator project, dose response (AID 540259); type: functional; conditions: Homo sapiens
[7] = Luminescence Cell-Based Dose Response HTS to Identify Inhibitors of 5'UTR Stem-Loop Driven Prion Protein mRNA Translation in H4 Neuroglioblastoma Cells. [Related pubchem assays: 1827 (Project Summary), 1813 (Primary HTS)]; type: functional
[8] = alpha-synuclein stem-loop luciferase translation blockers – H4 neuroglioma cells, luminescence, confirmation (AID 1988); type: functional, cell-based
[9] = test system: HEK293; experiment: EBV LMP1 TES2 canonical NF-kB signalling blockers – cell-based, HEK293, luciferase, cherry-pick, dose response (AID 588343); type: functional; conditions: Homo sapiens
[10] = A549 cell cytotoxicity, dose response, cytotoxicity control, plate reader, cherry-pick, antagonist series (AID 743412); type: functional, cell-based
[11] = toxicity toward HepG2 liver cells – cell-based, plate reader, cherry-pick, antagonist series, cytotoxicity control, dose response (AID 743416); type: functional
[12] = blockers of bursicon-stimulated LGR2 cAMP reporter – cell-based, HEK293, CRE-luciferase reporter, cherry pick, set 2, dose response (AID 743343); type: functional;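 note: transfected cells were stimulated with diluted bursicon conditioned medium after compound addition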
[13] = blockade of melanocortin 4 receptor signaling – cell-based, plate reader, cherry pick, counter-screen for LGR2 antagonist project, dose response (AID 743444); type: functional;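 note: transfected HEK 293 cells stimulated with alpha-MSH peptide; potency of inhibitors of the alpha-MSH evoked signal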
[14] = viability loss in HEK293 cells – cell-based, plate reader, cherry-picked samples, cytotoxicity control, dose response (AID 743446); type: functional
[15] = molecular target: T1, Sentrin-specific protease 8 (Homo sapiens, UniProt Q96LD8); experiment: inhibition of human SENP8 cleavage activity – biochemical, luminescence, SAR follow-up (AID 504501); type: functional
T1 sequence (Q96LD8 whole entry): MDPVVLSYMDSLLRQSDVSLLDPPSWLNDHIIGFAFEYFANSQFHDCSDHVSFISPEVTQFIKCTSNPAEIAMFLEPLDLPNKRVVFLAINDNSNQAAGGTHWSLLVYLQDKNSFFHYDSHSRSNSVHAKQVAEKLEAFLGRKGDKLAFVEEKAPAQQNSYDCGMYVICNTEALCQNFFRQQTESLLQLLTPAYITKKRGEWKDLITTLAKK

[16] = molecular target: T2, Caspase-3 (Homo sapiens, UniProt P42574); experiment: SAR Analysis of small molecule inhibitors of Sentrin-specific proteases (SENPs) using a Caspase-3 Selectivity assay. [Related pubchem assays (depositor defined):AID2540, AID2599, AID434973, AID489001]; type: functional
T2 sequence (P42574 whole entry): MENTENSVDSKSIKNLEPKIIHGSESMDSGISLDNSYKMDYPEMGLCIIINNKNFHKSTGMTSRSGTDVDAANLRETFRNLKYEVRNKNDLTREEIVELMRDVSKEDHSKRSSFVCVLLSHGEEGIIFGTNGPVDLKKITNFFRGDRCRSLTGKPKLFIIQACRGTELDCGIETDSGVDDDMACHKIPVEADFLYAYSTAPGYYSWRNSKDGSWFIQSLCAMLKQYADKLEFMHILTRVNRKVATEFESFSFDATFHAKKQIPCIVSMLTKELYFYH

[17] = molecular target: T3, Sentrin-specific protease 6 (Homo sapiens, UniProt Q9GZR1); experiment: SAR Analysis of small molecule inhibitors of Sentrin-specific protease 6 (SENP6) using a Luminescent assay. [Related pubchem assays (depositor defined):AID2582, AID2599]; type: functional
T3 sequence (Q9GZR1 whole entry): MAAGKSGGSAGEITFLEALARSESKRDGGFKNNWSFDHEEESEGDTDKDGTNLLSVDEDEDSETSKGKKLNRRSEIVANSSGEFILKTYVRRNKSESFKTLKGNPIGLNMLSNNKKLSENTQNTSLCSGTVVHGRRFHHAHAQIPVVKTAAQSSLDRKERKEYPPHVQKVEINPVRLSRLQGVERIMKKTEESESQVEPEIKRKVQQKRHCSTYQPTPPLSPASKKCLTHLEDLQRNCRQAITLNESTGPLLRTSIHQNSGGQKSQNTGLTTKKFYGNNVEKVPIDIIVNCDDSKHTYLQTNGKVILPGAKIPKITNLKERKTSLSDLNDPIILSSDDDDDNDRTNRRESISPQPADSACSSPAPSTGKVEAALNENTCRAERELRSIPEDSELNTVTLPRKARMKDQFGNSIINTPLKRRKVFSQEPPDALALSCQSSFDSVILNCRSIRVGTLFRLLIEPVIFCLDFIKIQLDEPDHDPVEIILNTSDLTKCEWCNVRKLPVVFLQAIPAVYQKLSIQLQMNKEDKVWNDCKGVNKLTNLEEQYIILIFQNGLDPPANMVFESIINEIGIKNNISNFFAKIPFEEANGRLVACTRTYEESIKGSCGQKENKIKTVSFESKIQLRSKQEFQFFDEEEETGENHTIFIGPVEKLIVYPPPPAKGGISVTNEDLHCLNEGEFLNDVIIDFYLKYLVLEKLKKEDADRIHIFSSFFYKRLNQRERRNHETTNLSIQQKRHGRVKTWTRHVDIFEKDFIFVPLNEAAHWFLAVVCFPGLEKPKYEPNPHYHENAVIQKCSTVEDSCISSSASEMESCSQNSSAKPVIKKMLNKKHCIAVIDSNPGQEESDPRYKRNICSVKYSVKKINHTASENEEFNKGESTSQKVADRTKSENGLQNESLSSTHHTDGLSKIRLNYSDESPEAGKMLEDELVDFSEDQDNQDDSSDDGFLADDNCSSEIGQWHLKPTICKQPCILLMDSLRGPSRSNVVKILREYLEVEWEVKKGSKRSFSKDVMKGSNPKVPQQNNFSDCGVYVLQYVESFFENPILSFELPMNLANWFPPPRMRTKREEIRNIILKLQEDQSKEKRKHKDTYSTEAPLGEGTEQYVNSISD

[18] = molecular target: T4, Sentrin-specific protease 7 (Homo sapiens, UniProt Q9BQF6); experiment: inhibition of human SENP7 cleavage activity – biochemical, luminescence, SAR follow-up (AID 504497); type: functional
T4 sequence (Q9BQF6 whole entry): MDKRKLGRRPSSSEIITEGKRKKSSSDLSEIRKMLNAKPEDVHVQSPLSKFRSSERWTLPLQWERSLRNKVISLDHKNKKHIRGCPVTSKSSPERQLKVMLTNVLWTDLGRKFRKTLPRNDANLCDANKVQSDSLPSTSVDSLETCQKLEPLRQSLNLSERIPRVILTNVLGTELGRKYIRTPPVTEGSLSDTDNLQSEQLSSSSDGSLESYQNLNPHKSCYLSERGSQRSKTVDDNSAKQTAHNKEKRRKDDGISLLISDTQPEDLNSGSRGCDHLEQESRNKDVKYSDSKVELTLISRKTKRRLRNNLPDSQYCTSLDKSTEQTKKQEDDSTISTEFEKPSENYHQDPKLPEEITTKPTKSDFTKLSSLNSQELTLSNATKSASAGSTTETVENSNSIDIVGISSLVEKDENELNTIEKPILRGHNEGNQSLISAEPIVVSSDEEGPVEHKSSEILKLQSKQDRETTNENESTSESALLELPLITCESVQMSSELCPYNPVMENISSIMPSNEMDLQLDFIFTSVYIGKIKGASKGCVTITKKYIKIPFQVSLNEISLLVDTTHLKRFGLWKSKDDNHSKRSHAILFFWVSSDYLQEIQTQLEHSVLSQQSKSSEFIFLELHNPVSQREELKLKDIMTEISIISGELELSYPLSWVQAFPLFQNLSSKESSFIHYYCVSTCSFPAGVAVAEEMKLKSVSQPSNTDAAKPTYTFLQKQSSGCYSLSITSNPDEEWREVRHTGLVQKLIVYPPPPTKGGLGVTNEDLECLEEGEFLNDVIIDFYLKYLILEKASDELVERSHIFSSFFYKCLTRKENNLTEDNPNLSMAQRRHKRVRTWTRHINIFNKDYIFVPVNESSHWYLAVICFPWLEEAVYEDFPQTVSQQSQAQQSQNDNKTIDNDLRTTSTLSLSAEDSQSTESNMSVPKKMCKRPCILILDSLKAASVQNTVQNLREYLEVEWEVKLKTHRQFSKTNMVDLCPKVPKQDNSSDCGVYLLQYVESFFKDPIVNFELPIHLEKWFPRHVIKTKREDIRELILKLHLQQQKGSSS

Exodeoxyribonuclease V, sequence (P04993 whole entry): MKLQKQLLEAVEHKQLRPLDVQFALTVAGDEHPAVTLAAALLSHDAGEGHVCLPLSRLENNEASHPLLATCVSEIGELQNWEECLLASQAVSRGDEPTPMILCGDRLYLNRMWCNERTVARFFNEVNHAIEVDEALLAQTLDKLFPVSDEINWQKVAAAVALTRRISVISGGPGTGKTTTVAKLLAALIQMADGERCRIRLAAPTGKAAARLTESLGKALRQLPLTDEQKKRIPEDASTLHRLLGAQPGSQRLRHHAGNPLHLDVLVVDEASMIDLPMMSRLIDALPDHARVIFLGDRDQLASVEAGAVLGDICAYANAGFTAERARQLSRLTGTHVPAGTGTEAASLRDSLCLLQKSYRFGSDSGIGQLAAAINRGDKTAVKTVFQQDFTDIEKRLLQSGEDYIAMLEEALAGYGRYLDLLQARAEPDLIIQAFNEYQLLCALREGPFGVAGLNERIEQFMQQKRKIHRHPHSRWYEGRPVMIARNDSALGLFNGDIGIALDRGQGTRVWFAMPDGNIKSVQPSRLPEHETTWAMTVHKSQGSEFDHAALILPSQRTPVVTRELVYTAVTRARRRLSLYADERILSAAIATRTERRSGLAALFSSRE
Exodeoxyribonuclease V, sequence (P07648 whole entry): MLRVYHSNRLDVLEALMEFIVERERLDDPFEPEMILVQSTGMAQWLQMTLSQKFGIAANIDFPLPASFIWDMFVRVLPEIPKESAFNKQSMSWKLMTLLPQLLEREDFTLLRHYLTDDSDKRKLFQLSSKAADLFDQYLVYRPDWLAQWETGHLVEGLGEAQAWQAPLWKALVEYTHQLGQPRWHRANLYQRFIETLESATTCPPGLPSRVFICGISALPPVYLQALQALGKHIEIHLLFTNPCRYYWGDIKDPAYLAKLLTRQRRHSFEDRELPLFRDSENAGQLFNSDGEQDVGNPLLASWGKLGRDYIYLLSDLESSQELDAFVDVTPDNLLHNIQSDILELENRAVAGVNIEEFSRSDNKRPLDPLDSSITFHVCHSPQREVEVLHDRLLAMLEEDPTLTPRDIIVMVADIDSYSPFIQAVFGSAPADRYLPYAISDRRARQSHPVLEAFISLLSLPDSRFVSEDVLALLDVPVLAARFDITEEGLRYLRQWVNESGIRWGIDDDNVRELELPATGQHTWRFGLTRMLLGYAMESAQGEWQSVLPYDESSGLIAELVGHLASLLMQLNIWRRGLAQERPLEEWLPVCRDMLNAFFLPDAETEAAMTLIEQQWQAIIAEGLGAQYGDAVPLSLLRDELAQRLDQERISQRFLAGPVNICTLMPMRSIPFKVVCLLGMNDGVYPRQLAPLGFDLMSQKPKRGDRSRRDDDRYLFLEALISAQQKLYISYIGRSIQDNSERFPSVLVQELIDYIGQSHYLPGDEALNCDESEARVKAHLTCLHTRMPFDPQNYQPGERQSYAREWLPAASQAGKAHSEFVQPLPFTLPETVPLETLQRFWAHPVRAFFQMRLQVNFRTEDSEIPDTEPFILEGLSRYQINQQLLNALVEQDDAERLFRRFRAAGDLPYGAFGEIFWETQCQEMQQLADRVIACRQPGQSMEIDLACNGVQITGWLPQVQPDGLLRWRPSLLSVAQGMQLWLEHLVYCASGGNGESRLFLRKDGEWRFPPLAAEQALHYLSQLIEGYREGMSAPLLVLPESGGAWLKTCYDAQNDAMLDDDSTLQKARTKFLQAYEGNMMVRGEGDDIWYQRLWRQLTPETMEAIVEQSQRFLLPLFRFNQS
Exodeoxyribonuclease V, sequence (P08394 whole entry): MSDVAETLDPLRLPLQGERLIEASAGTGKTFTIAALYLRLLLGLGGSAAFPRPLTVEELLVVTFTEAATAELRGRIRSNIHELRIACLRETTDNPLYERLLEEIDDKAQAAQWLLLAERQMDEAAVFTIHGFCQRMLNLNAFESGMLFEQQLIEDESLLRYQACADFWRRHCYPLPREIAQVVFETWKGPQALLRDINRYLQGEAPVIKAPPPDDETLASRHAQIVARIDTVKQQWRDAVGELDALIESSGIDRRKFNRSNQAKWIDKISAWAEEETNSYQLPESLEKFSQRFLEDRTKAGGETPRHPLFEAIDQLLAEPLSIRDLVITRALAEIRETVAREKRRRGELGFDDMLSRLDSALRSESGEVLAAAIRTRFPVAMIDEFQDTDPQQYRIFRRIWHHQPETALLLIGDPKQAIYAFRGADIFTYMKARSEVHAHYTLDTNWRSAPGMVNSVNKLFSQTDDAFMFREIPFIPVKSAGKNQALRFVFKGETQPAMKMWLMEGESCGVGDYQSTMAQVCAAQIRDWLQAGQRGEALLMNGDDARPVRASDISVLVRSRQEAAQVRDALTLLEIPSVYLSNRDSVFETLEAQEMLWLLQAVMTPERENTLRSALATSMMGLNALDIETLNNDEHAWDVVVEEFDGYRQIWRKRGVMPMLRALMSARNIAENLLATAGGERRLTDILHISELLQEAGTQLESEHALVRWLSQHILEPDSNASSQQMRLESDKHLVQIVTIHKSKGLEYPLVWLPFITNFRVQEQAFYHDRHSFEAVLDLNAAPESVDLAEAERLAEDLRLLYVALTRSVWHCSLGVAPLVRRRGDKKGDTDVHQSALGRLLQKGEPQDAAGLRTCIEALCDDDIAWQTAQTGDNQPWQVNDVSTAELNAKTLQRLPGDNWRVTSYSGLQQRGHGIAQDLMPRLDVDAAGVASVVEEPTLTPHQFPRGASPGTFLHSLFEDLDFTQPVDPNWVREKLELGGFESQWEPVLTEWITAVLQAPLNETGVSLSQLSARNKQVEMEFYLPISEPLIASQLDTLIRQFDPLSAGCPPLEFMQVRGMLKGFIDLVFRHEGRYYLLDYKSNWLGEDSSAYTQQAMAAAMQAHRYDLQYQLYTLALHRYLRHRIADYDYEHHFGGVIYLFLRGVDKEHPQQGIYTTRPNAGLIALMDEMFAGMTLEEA

With `CCOC(=O)c1cn(C2CC2)c2c(F)c(NCCCN(C)C)c(F)cc2c1=O` the IC50 [1] was > 119 µM (inactive), the IC50 [2] was 75.9 µM (inactive) and the EC50 [3] was 353 nM (active).

With `Nc1c(C(=O)N2CCCC2)sc2nc(-c3ccccc3)ccc12` the IC50 [4] was > 49.7 µM (inactive), the IC50 [5] was 12.4 µM (inactive) and the AC50 [6] was 197 µM (active).

For `O=C(Nc1ccccn1)c1onc2c1CCCC2`, the EC50 [7] was 50.2 µM (active), the EC50 [8] was 4.67 µM (active) and the AC50 [9] was 1.46 µM (active). The AC50 [10] was 45.1 µM (active), the AC50 [11] was 15.9 µM (active) and the AC50 [12] was 3.65 µM (active). For the same molecule, the AC50 [13] was 3.55 µM (active) and the AC50 [14] was > 52 µM (inactive).

For `COc1ccc(OC)c2sc(NC(=O)c3ccc(Br)s3)nc12`, the IC50 [15] was > 99 µM (inactive), the IC50 [16] was > 99 µM (inactive) and the IC50 [17] was > 99 µM (inactive). For the same molecule, the IC50 [18] was > 99 µM (inactive).

Source: ChEMBL document CHEMBL1201862, “PubChem BioAssay data set” (2004)
